Source: ChEMBL document CHEMBL5634112, “Synthesis and biological evaluation of fluoroquinolones containing a pyridoxine derivatives moiety” (Eur J Med Chem, 2023)
≈ marks a conversion by molar mass, not a printed value.

Assays:
Micrococcus luteus = experiment: Antibacterial activity against clinical isolate Micrococcus luteus assessed as reduction in microbial growth incubated for 24 hrs by broth microdilution method; assay type: functional
Bacillus subtilis = experiment: Antibacterial activity against Bacillus subtilis 168 assessed as reduction in microbial growth incubated for 24 hrs by broth microdilution method; assay type: functional
Staphylococcus aureus [1] = experiment: Antibacterial activity against methicillin sensitive Staphylococcus aureus ATCC 29213 assessed as reduction in microbial growth incubated for 24 hrs by broth microdilution method; assay type: functional
[2] = tested on: Staphylococcus epidermidis; experiment: Antibacterial activity against clinical isolate Staphylococcus epidermidis assessed as reduction in microbial growth incubated for 24 hrs by broth microdilution method; assay type: functional
Pseudomonas aeruginosa [3] = experiment: Antibacterial activity against Pseudomonas aeruginosa ATCC 27853 assessed as reduction in microbial growth incubated for 24 hrs by broth microdilution method; assay type: functional
Escherichia coli [4] = experiment: Antibacterial activity against Escherichia coli ATCC 25922 assessed as reduction in microbial growth incubated for 24 hrs by broth microdilution method; assay type: functional
Salmonella typhimurium = experiment: Antibacterial activity against Salmonella typhimurium TA100 assessed as reduction in microbial growth incubated for 24 hrs by broth microdilution method; assay type: functional, Salmonella enterica subsp. enterica serovar Typhimurium; details: Salmonella enterica
Staphylococcus aureus [5] = experiment: Antibacterial activity against clinical isolate Staphylococcus aureus 4721 assessed as reduction in microbial growth incubated for 24 hrs by broth microdilution method; assay type: functional
[6] = tested on: Staphylococcus auricularis; experiment: Antibacterial activity against clinical isolate Staphylococcus auricularis NKC 7 assessed as reduction in microbial growth incubated for 24 hrs by broth microdilution method; assay type: functional
[7] = tested on: Staphylococcus haemolyticus; experiment: Antibacterial activity against clinical isolate Staphylococcus haemolyticus NKC 31/2 assessed as reduction in microbial growth incubated for 24 hrs by broth microdilution method; assay type: functional
[8] = tested on: Staphylococcus epidermidis; experiment: Antibacterial activity against clinical isolate Staphylococcus epidermidis NKC 37/1 assessed as reduction in microbial growth incubated for 24 hrs by broth microdilution method; assay type: functional
Staphylococcus aureus [9] = experiment: Antibacterial activity against clinical isolate Staphylococcus aureus 1812 assessed as reduction in microbial growth incubated for 24 hrs by broth microdilution method; assay type: functional
Staphylococcus aureus [10] = experiment: Antibacterial activity against clinical isolate methicillin resistant Staphylococcus aureus 4771 assessed as reduction in microbial growth incubated for 24 hrs by broth microdilution method; assay type: functional
[11] = tested on: Staphylococcus haemolyticus; experiment: Antibacterial activity against clinical isolate Staphylococcus haemolyticus 1464 assessed as reduction in microbial growth incubated for 24 hrs by broth microdilution method; assay type: functional
Enterococcus faecalis = experiment: Antibacterial activity against clinical isolate Enterococcus faecalis 1465 assessed as reduction in microbial growth incubated for 24 hrs by broth microdilution method; assay type: functional
Escherichia coli [12] = experiment: Antibacterial activity against clinical isolate Escherichia coli NKC 1 assessed as reduction in microbial growth incubated for 24 hrs by broth microdilution method; assay type: functional
Pseudomonas aeruginosa [13] = experiment: Antibacterial activity against clinical isolate Pseudomonas aeruginosa NKC 17 assessed as reduction in microbial growth incubated for 24 hrs by broth microdilution method; assay type: functional
Cedecea davisae = experiment: Antibacterial activity against clinical isolate Cedecea davisae 1813 assessed as reduction in microbial growth incubated for 24 hrs by broth microdilution method; assay type: functional
Klebsiella pneumoniae = experiment: Antibacterial activity against clinical isolate Klebsiella pneumoniae 1678 assessed as reduction in microbial growth incubated for 24 hrs by broth microdilution method; assay type: functional
Klebsiella aerogenes = experiment: Antibacterial activity against clinical isolate Enterobacter aerogenes NKC 8 assessed as reduction in microbial growth incubated for 24 hrs by broth microdilution method; assay type: functional
[14] = Cytotoxicity against human CHL assessed as reduction in cell viability incubated for 72 hrs by MTT assay; assay type: toxicity, cell-based; details: CHL cells
[15] = Cytotoxicity against human HSF assessed as reduction in cell viability incubated for 72 hrs by MTT assay; assay type: toxicity, cell-based; details: HSF cells
[16] = Cytotoxicity against human MSC assessed as reduction in cell viability incubated for 72 hrs by MTT assay; assay type: toxicity, cell-based; details: MSC cells

MIC (Micrococcus luteus)	MIC (Bacillus subtilis)	MIC (Staphylococcus aureus [1])	MIC [2]	MIC (Pseudomonas aeruginosa [3])	MIC (Escherichia coli [4])	MIC (Salmonella typhimurium)	Structure (SMILES)	other results
> 64 µg/mL	64 µg/mL	> 64 µg/mL	> 64 µg/mL	> 64 µg/mL	> 64 µg/mL	> 64 µg/mL	CCCCCCCCC1OCc2c(CN3CCN(c4cc5c(cc4F)c(=O)c(C(=O)O)cn5CC)CC3)cnc(C)c2O1 (centres undefined)	
8 µg/mL	2 µg/mL	8 µg/mL	8 µg/mL	> 64 µg/mL	> 64 µg/mL	4 µg/mL	Cc1ncc(CN2CCN(c3cc4c(cc3F)c(=O)c(C(=O)O)cn4C3CC3)CC2)c2c1OC(C)OC2.Cl (centres undefined)	
64 µg/mL	2 µg/mL	16 µg/mL	32 µg/mL	> 64 µg/mL	> 64 µg/mL	2 µg/mL	CCCC1OCc2c(CN3CCN(c4cc5c(cc4F)c(=O)c(C(=O)O)cn5CC)CC3)cnc(C)c2O1 (centres undefined)	
8 µg/mL	2 µg/mL	4 µg/mL	16 µg/mL	> 64 µg/mL	2 µg/mL	64 µg/mL	CCn1cc(C(=O)O)c(=O)c2cc(F)c(N3CCN(Cc4cnc(C)c(O)c4C)CC3)cc21.Cl	
> 64 µg/mL	> 64 µg/mL	> 64 µg/mL	> 64 µg/mL	> 64 µg/mL	> 64 µg/mL	> 64 µg/mL	CCCCCCCCC1OCc2c(CN3CCN(c4c(F)cc5c(=O)c(C(=O)O)cn(CC)c5c4F)CC3C)cnc(C)c2O1 (centres undefined)	
32 µg/mL	1 µg/mL	2 µg/mL	> 64 µg/mL	> 64 µg/mL	2 µg/mL	2 µg/mL	CCn1cc(C(=O)O)c(=O)c2cc(F)c(N3CCN(Cc4cnc(C)c(O)c4C)C(C)C3)c(F)c21.Cl (centres undefined)	
8 µg/mL	2 µg/mL	16 µg/mL	64 µg/mL	> 64 µg/mL	> 64 µg/mL	2 µg/mL	CCn1cc(C(=O)O)c(=O)c2cc(F)c(N3CCN(Cc4cnc(C)c5c4COC(C)(C)O5)C(C)C3)c(F)c21.Cl (centres undefined)	
> 64 µg/mL	64 µg/mL	> 64 µg/mL	> 64 µg/mL	> 64 µg/mL	64 µg/mL	> 64 µg/mL	CCn1cc(C(=O)O)c(=O)c2cc(F)c(N3CCN(Cc4cnc(C)c5c4COC(C)(C)O5)CC3)cc21	
8 µg/mL	4 µg/mL	8 µg/mL	32 µg/mL	> 64 µg/mL	> 64 µg/mL	16 µg/mL	CCn1cc(C(=O)O)c(=O)c2cc(F)c(N3CCN(Cc4nc(C)c(O)c(CO)c4CO)CC3)cc21.Cl	
32 µg/mL	4 µg/mL	8 µg/mL	16 µg/mL	> 64 µg/mL	16 µg/mL	4 µg/mL	CCn1cc(C(=O)O)c(=O)c2cc(F)c(N3CCN(Cc4cnc(C)c5c4COCO5)C(C)C3)c(F)c21.Cl (centres undefined)	
16 µg/mL	2 µg/mL	16 µg/mL	8 µg/mL	> 64 µg/mL	> 64 µg/mL	2 µg/mL	CCCC1OCc2c(CN3CCN(c4c(F)cc5c(=O)c(C(=O)O)cn(CC)c5c4F)CC3C)cnc(C)c2O1 (centres undefined)	
8 µg/mL	2 µg/mL	8 µg/mL	8 µg/mL	> 64 µg/mL	64 µg/mL	4 µg/mL	Cc1nc(CN2CCN(c3cc4c(cc3F)c(=O)c(C(=O)O)cn4C3CC3)CC2)c(CO)c2c1OC(C)(C)OC2	
> 64 µg/mL	2 µg/mL	2 µg/mL	8 µg/mL	16 µg/mL	> 64 µg/mL	2 µg/mL	CCn1cc(C(=O)O)c(=O)c2cc(F)c(N3CCN(Cc4cnc(C)c5c4COC(C)O5)C(C)C3)c(F)c21 (centres undefined)	
32 µg/mL	4 µg/mL	16 µg/mL	32 µg/mL	> 64 µg/mL	64 µg/mL	4 µg/mL	CCn1cc(C(=O)O)c(=O)c2cc(F)c(N3CCN(Cc4cnc(C)c(O)c4CO)CC3)cc21.Cl	
4 µg/mL	1 µg/mL	1 µg/mL	4 µg/mL	> 64 µg/mL	16 µg/mL	4 µg/mL	COc1c(N2C[C@@H]3CCCN(Cc4cnc(C)c5c4COC(C)O5)[C@@H]3C2)c(F)cc2c(=O)c(C(=O)O)cn(C3CC3)c12 (some centres undefined)	
64 µg/mL	2 µg/mL	2 µg/mL	64 µg/mL	> 64 µg/mL	2 µg/mL	2 µg/mL	CCn1cc(C(=O)O)c(=O)c2cc(F)c(N3CCN(Cc4nc(C)c(O)c(CO)c4CO)C(C)C3)c(F)c21.Cl (centres undefined)	
32 µg/mL	2 µg/mL	64 µg/mL	32 µg/mL	> 64 µg/mL	64 µg/mL	4 µg/mL	Cc1nc(CN2CCN(c3cc4c(cc3F)c(=O)c(C(=O)O)cn4C3CC3)CC2)c(CO)c(CO)c1O.Cl	
16 µg/mL	8 µg/mL	8 µg/mL	16 µg/mL	> 64 µg/mL	8 µg/mL	4 µg/mL	CCn1cc(C(=O)O)c(=O)c2cc(F)c(N3CCN(Cc4c(CO)nc(C)c(O)c4CO)CC3)cc21.Cl	
64 µg/mL	8 µg/mL	32 µg/mL	32 µg/mL	> 64 µg/mL	> 64 µg/mL	16 µg/mL	CCn1cc(C(=O)O)c(=O)c2cc(F)c(N3CCN(Cc4cnc(C)c5c4COC(C)O5)CC3)cc21 (centres undefined)	
64 µg/mL	2 µg/mL	32 µg/mL	64 µg/mL	> 64 µg/mL	> 64 µg/mL	4 µg/mL	CCCCCCCCC1OCc2c(CN3CCN(c4cc5c(cc4F)c(=O)c(C(=O)O)cn5C4CC4)CC3)cnc(C)c2O1 (centres undefined)	
64 µg/mL	2 µg/mL	64 µg/mL	64 µg/mL	> 64 µg/mL	> 64 µg/mL	4 µg/mL	CCCC1OCc2c(CN3CCN(c4cc5c(cc4F)c(=O)c(C(=O)O)cn5C4CC4)CC3)cnc(C)c2O1 (centres undefined)	
16 µg/mL	8 µg/mL	16 µg/mL	32 µg/mL	> 64 µg/mL	> 64 µg/mL	16 µg/mL	CCCCCCCCC1OCc2c(CN3CCC[C@H]4CN(c5c(F)cc6c(=O)c(C(=O)O)cn(C7CC7)c6c5OC)C[C@H]43)cnc(C)c2O1 (some centres undefined)	
32 µg/mL	2 µg/mL	32 µg/mL	16 µg/mL	> 64 µg/mL	64 µg/mL	4 µg/mL	Cc1ncc(CN2CCN(c3cc4c(cc3F)c(=O)c(C(=O)O)cn4C3CC3)CC2)c2c1OC(C)(C)OC2.Cl	
> 64 µg/mL	4 µg/mL	64 µg/mL	16 µg/mL	> 64 µg/mL	8 µg/mL	2 µg/mL	CCn1cc(C(=O)O)c(=O)c2cc(F)c(N3CCN(Cc4nc(C)c5c(c4CO)COC(C)(C)O5)C(C)C3)c(F)c21 (centres undefined)	

Structure (SMILES)	MIC (Micrococcus luteus)	MIC (Bacillus subtilis)	MIC (Staphylococcus aureus [1])	MIC [2]	MIC (Pseudomonas aeruginosa [3])	MIC (Escherichia coli [4])	MIC (Salmonella typhimurium)	other results
CCn1cc(C(=O)O)c(=O)c2cc(F)c(N3CCN(Cc4nc(C)c5c(c4CO)COC(C)(C)O5)CC3)cc21	4 µg/mL	2 µg/mL	2 µg/mL	8 µg/mL	> 64 µg/mL	> 64 µg/mL	2 µg/mL	MIC (Staphylococcus aureus [5]): 4 µg/mL; MIC [6]: 0.25 µg/mL; MIC [7]: 32 µg/mL; MIC [8]: 4 µg/mL; MIC (Staphylococcus aureus [9]): 8 µg/mL; MIC (Staphylococcus aureus [10]): 4 µg/mL; MIC [11]: 4 µg/mL; MIC (Enterococcus faecalis): > 64 µg/mL; MIC (Escherichia coli [12]): 16 µg/mL; MIC (Pseudomonas aeruginosa [13]): 64 µg/mL; MIC (Cedecea davisae): 2 µg/mL; MIC (Klebsiella pneumoniae): > 64 µg/mL; MIC (Klebsiella aerogenes): 32 µg/mL; CC50 at 72 h [14]: 7.05 µg/mL (≈ 13 µM); CC50 at 72 h [15]: 24.9 µg/mL (≈ 46 µM); CC50 at 72 h [16]: 16.2 µg/mL (≈ 30 µM)
COc1c(N2C[C@@H]3CCCN(Cc4cnc(C)c(O)c4CO)[C@@H]3C2)c(F)cc2c(=O)c(C(=O)O)cn(C3CC3)c12.Cl	4 µg/mL	2 µg/mL	2 µg/mL	2 µg/mL	> 64 µg/mL	> 64 µg/mL	4 µg/mL	MIC (Staphylococcus aureus [5]): 0.13 µg/mL; MIC [6]: 0.03 µg/mL; MIC [7]: 8 µg/mL; MIC [8]: 0.06 µg/mL; MIC (Staphylococcus aureus [9]): 0.25 µg/mL; MIC (Staphylococcus aureus [10]): 0.13 µg/mL; MIC [11]: 0.13 µg/mL; MIC (Enterococcus faecalis): 1 µg/mL; MIC (Escherichia coli [12]): 4 µg/mL; MIC (Pseudomonas aeruginosa [13]): 64 µg/mL; MIC (Cedecea davisae): 0.13 µg/mL; MIC (Klebsiella pneumoniae): > 64 µg/mL; MIC (Klebsiella aerogenes): 8 µg/mL; CC50 at 72 h [14]: 18.6 µg/mL; CC50 at 72 h [15]: 56.7 µg/mL; CC50 at 72 h [16]: 48.4 µg/mL
